From patent publication US6555692B1, “Preparation and use of bifunctional molecules having DNA sequence binding specificity” (California Institute of Technology, priority 1996, dated 2003)

Key:
5′-AACCAAGTCTTGGTA-3′ = assay: Association constants, recognition of 15 base pairs; conditions: for Specificity Center mismatch: match vs 5′-AACCAACTGTTGGTA-3′; for Specificity Edge mismatch: match vs 5′-AACCAAGTCTTGCGA-3′; for Ka 5′-AACCAAGTCTTGGTA-3′: Table 7, C3-OH polyamides, match site; for Specificity 5′-AACCAACTGTTGGTA-3′: Table 7, center mismatch; for Specificity 5′-AACCAAGTCTTGCGA-3′: Table 7, edge mismatch
5′-TGTCAAAGACA-3′ = assay: Recognition of 9-11 base pairs (Table 9); assay type: binding; conditions: 22° C. and pH 7.0
From the text: (§1) Table 9 illustrates recognition of recognition of 9-11 base pairs by ImPyPy-X-ImPyPy-β-Dp.

5′-TGTCAAGACA-3′ = assay: Recognition of 9-11 base pairs (Table 9); assay type: binding; conditions: 22° C. and pH 7.0
From the text: as §1

5′-TGTCAGACA-3′ = assay: Recognition of 9-11 base pairs (Table 9); assay type: binding; conditions: 22° C. and pH 7.0
From the text: as §1

5′-gcggtTGTCAacccg-3′ = assay: Recognition of 9-11 base pairs (Table 9); assay type: binding; conditions: 22° C. and pH 7.0
From the text: as §1

[1] = Table 6, ImImPy-γ-PyPyPy-X-ImPyPy-β-Dp
[2] = Table 5, ImPyPy-X-ImImPy-γ-PyPyPy-β-Dp, 24° C., pH 7.0

CN(C)CCCNC(=O)CCNC(=O)c1cc(NC(=O)c2cc(NC(=O)c3nc(NC(=O)CCCCNC(=O)c4cc(NC(=O)c5cc(NC(=O)c6cc(NC(=O)CCCNC(=O)c7cc(NC(=O)c8nc(NC(=O)c9nccn9C)cn8C)cn7C)cn6C)cn5C)cn4C)cn3C)cn2C)cn1C [ImImPy-γ-PyPyPy-C5-ImPyPy-β-Dp, ImImPy-γ-PyPyPy-X-ImPyPy-β-Dp]
Ka Match (5′-AACCAAGTCTTGGTA-3′; [1]): 1e+09 M⁻¹ | Specificity Center mismatch (5′-AACCAAGTCTTGGTA-3′; Table 6): 2 | Specificity Edge mismatch (5′-AACCAAGTCTTGGTA-3′; Table 6): 2

CN(C)CCCNC(=O)CCNC(=O)c1cc(NC(=O)c2cc(NC(=O)c3nc(NC(=O)CCCCCNC(=O)c4cc(NC(=O)c5cc(NC(=O)c6cc(NC(=O)CCCNC(=O)c7cc(NC(=O)c8nc(NC(=O)c9nccn9C)cn8C)cn7C)cn6C)cn5C)cn4C)cn3C)cn2C)cn1C [ImImPy-γ-PyPyPy-C6-ImPyPy-β-Dp, ImImPy-γ-PyPyPy-X-ImPyPy-β-Dp]
Ka Match (5′-AACCAAGTCTTGGTA-3′; [1]): 2e+08 M⁻¹ | Specificity Center mismatch (5′-AACCAAGTCTTGGTA-3′; Table 6): 1 | Specificity Edge mismatch (5′-AACCAAGTCTTGGTA-3′; Table 6): 2

CN(C)CCCNC(=O)CCNC(=O)c1cc(NC(=O)c2cc(NC(=O)c3nc(NC(=O)CCCCCCNC(=O)c4cc(NC(=O)c5cc(NC(=O)c6cc(NC(=O)CCCNC(=O)c7cc(NC(=O)c8nc(NC(=O)c9nccn9C)cn8C)cn7C)cn6C)cn5C)cn4C)cn3C)cn2C)cn1C [ImImPy-γ-PyPyPy-C7-ImPyPy-β-Dp, ImImPy-γ-PyPyPy-X-ImPyPy-β-Dp]
Ka Match (5′-AACCAAGTCTTGGTA-3′; [1]): 1e+09 M⁻¹ | Specificity Center mismatch (5′-AACCAAGTCTTGGTA-3′; Table 6): 1 | Specificity Edge mismatch (5′-AACCAAGTCTTGGTA-3′; Table 6): 1

CN(C)CCCNC(=O)CCNC(=O)c1cc(NC(=O)c2cc(NC(=O)c3nc(NC(=O)CCNC(=O)CCNC(=O)c4cc(NC(=O)c5cc(NC(=O)c6cc(NC(=O)CCCNC(=O)c7cc(NC(=O)c8nc(NC(=O)c9nccn9C)cn8C)cn7C)cn6C)cn5C)cn4C)cn3C)cn2C)cn1C [ImImPy-γ-PyPyPy-β-β-ImPyPy-β-Dp, ImImPy-γ-PyPyPy-X-ImPyPy-β-Dp]
Ka Match (5′-AACCAAGTCTTGGTA-3′; [1]): 1e+10 M⁻¹ | Specificity Center mismatch (5′-AACCAAGTCTTGGTA-3′; Table 6): 1 | Specificity Edge mismatch (5′-AACCAAGTCTTGGTA-3′; Table 6): 1

Cn1cc(NC(=O)c2cc(NC(=O)c3cc(NC(=O)CCCNC(=O)c4cc(NC(=O)c5nc(NC(=O)c6nc(NC(=O)CCCCNC(=O)c7cc(NC(=O)c8cc(NC(=O)c9nccn9C)cn8C)cn7C)cn6C)cn5C)cn4C)cn3C)cn2C)cc1C(=O)NCCCO [ImPyPy-C5-ImImPy-γ-PyPyPy-C3—OH]
Ka 5′-AACCAAGTCTTGGTA-3′ (5′-AACCAAGTCTTGGTA-3′): 3 × 10^7 | Specificity 5′-AACCAACTGTTGGTA-3′ (5′-AACCAAGTCTTGGTA-3′): >3 | Specificity 5′-AACCAAGTCTTGCGA-3′ (5′-AACCAAGTCTTGGTA-3′): >3

CN(C)CCCNC(=O)CCNC(=O)c1cc(NC(=O)c2cc(NC(=O)c3cc(NC(=O)CCCNC(=O)c4cc(NC(=O)c5nc(NC(=O)c6nc(NC(=O)CCCCNC(=O)c7cc(NC(=O)c8cc(NC(=O)c9nccn9C)cn8C)cn7C)cn6C)cn5C)cn4C)cn3C)cn2C)cn1C [ImPyPy-C5-ImImPy-γ-PyPyPy-β-Dp, ImPyPy-X-ImImPy-γ-PyPyPy-β-Dp]
Ka Match (5′-AACCAAGTCTTGGTA-3′; [2]): 4e+08 M⁻¹ | Specificity Center mismatch (5′-AACCAAGTCTTGGTA-3′; Table 5): 11 | Specificity Edge mismatch (5′-AACCAAGTCTTGGTA-3′; Table 5): 19

CN(C)CCCNC(=O)CCNC(=O)c1cc(NC(=O)c2cc(NC(=O)c3nc(NC(=O)CCCCNC(=O)c4cc(NC(=O)c5cc(NC(=O)c6nccn6C)cn5C)cn4C)cn3C)cn2C)cn1C [ImPyPy-C5-ImPyPy-β-Dp]
5′-TGTCAAAGACA-3′ (5′-TGTCAAAGACA-3′): 1 × 10^9 | 5′-TGTCAAGACA-3′ (5′-TGTCAAGACA-3′): 1 × 10^9 | 5′-TGTCAGACA-3′ (5′-TGTCAGACA-3′): 2 × 10^8 | 5′-gcggtTGTCAacccg-3′ (5′-gcggtTGTCAacccg-3′): 1 × 10^9

Cn1cc(NC(=O)c2cc(NC(=O)c3cc(NC(=O)CCCNC(=O)c4cc(NC(=O)c5nc(NC(=O)c6nc(NC(=O)CCCCCNC(=O)c7cc(NC(=O)c8cc(NC(=O)c9nccn9C)cn8C)cn7C)cn6C)cn5C)cn4C)cn3C)cn2C)cc1C(=O)NCCCO [ImPyPy-C6-ImImPy-γ-PyPyPy-C3—OH]
Ka 5′-AACCAAGTCTTGGTA-3′ (5′-AACCAAGTCTTGGTA-3′): 3 × 10^7 | Specificity 5′-AACCAACTGTTGGTA-3′ (5′-AACCAAGTCTTGGTA-3′): 2 | Specificity 5′-AACCAAGTCTTGCGA-3′ (5′-AACCAAGTCTTGGTA-3′): 2

CN(C)CCCNC(=O)CCNC(=O)c1cc(NC(=O)c2cc(NC(=O)c3cc(NC(=O)CCCNC(=O)c4cc(NC(=O)c5nc(NC(=O)c6nc(NC(=O)CCCCCNC(=O)c7cc(NC(=O)c8cc(NC(=O)c9nccn9C)cn8C)cn7C)cn6C)cn5C)cn4C)cn3C)cn2C)cn1C [ImPyPy-C6-ImImPy-γ-PyPyPy-β-Dp, ImPyPy-X-ImImPy-γ-PyPyPy-β-Dp]
Ka Match (5′-AACCAAGTCTTGGTA-3′; [2]): 2e+08 M⁻¹ | Specificity Center mismatch (5′-AACCAAGTCTTGGTA-3′; Table 5): 12 | Specificity Edge mismatch (5′-AACCAAGTCTTGGTA-3′; Table 5): 15

CN(C)CCCNC(=O)CCNC(=O)c1cc(NC(=O)c2cc(NC(=O)c3nc(NC(=O)CCCCCNC(=O)c4cc(NC(=O)c5cc(NC(=O)c6nccn6C)cn5C)cn4C)cn3C)cn2C)cn1C [ImPyPy-C6-ImPyPy-β-Dp]
5′-TGTCAAAGACA-3′ (5′-TGTCAAAGACA-3′): 5 × 10^7 | 5′-TGTCAAGACA-3′ (5′-TGTCAAGACA-3′): 2 × 10^8 | 5′-TGTCAGACA-3′ (5′-TGTCAGACA-3′): 1 × 10^8 | 5′-gcggtTGTCAacccg-3′ (5′-gcggtTGTCAacccg-3′): 5 × 10^7

CN(C)CCCNC(=O)CCNC(=O)c1cc(NC(=O)c2cc(NC(=O)c3cc(NC(=O)CCCNC(=O)c4cc(NC(=O)c5nc(NC(=O)c6nc(NC(=O)CCCCCCNC(=O)c7cc(NC(=O)c8cc(NC(=O)c9nccn9C)cn8C)cn7C)cn6C)cn5C)cn4C)cn3C)cn2C)cn1C [ImPyPy-C7-ImImPy-γ-PyPyPy-β-Dp, ImPyPy-X-ImImPy-γ-PyPyPy-β-Dp]
Ka Match (5′-AACCAAGTCTTGGTA-3′; [2]): 2e+08 M⁻¹ | Specificity Center mismatch (5′-AACCAAGTCTTGGTA-3′; Table 5): 2 | Specificity Edge mismatch (5′-AACCAAGTCTTGGTA-3′; Table 5): 2
